Test results from patent publication US20090012051A1, “EXTERNAL PREPARATION” (KYOWA HAKKO KOGYO CO., LTD., priority 2005, published 2009).
In brackets after ≈: the same amount, converted by molar mass.

Experiment: Solubility of Compound (I) in solvent components
Format: physicochemical

- solubility (oil or lipid, in isopropyl myristate): ~10 mg/mL (≈ 25.4 mM)
- solubility (organic solvent or mixture, in benzyl alcohol): ~100 mg/mL (≈ 254 mM)
- solubility (organic solvent or mixture, in propylene carbonate): ~33 mg/mL (≈ 83.7 mM)
- solubility (organic solvent or mixture, in propylene glycol): ~3 mg/mL (≈ 7.61 mM)
SMILES: COc1ccc(C(=O)Cc2c(Cl)cncc2Cl)c2c1OC1(CCCC1)O2 [Compound (I), 7-[2-(3,5-dichloro-4-pyridyl)-1-oxoethyl]-4-methoxy-spiro[1,3-benzodioxol-2,1′-cyclopentane]]
